The values below come from patent publication US10058550B2, “Methods of treating heart failure” (priority 2015, dated 2018).

In this assay the target is human APJ receptor (Homo sapiens (Human), UniProt P35414). Description: biochemical. The class given is biochemical. The conditions noted are these: read-out: Activity hAPJ SPA EC50 IP. In a few lines:
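Membranes from CHO cells stably expressing cloned human APJ were incubated with WGA SPA beads in 20 mM HEPES pH 7.5, 5 mM MgCl2, 0.1% BSA, 200 mM NaCl and 3 μM GDP. Reaction started with 0.2 nM [35S]GTPγS ± ligands, 90 min at RT. EC50 obtained by non-linear regression as mean of independent experiments.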

Chain of human APJ receptor (P35414 whole entry): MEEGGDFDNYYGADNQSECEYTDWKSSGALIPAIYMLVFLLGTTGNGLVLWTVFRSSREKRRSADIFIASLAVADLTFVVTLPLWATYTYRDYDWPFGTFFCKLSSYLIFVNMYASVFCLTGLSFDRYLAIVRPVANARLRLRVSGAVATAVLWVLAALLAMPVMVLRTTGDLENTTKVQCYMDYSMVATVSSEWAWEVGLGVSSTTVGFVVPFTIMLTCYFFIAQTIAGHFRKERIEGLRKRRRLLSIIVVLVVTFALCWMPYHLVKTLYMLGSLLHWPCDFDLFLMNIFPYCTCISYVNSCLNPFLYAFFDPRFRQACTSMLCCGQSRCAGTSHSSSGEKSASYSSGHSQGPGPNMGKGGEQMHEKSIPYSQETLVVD

For `COc1cccc(OC)c1-n1c(NS(=O)(=O)[C@@H](C)[C@H](O)c2nc(C)c(C)s2)nnc1-c1cncc(C)c1` (single isomer, unassigned) [Example 291.0], the EC50 (usually the concentration giving half of the maximal effect) turned out to be 1.8 nM.

`COc1cccc(OC)c1-n1c(NS(=O)(=O)[C@@H](C)[C@H](O)c2nc(C)c(C)s2)nnc1-c1cncc(C)c1` (single isomer, unassigned) [Example 292.0]: the EC50 was 0.9 nM.

As to `COc1cccc(OC)c1-n1c(NS(=O)(=O)[C@@H](C)[C@H](O)c2nc(C)c(C)s2)nnc1-c1cncc(C)c1` (single isomer, unassigned) [Example 293.0], the EC50 turned out to be 13 nM.

As to `COc1cccc(OC)c1-n1c(NS(=O)(=O)[C@@H](C)[C@H](O)c2nc(C)c(C)s2)nnc1-c1cncc(C)c1` (single isomer, unassigned) [Example 294.0], the EC50 came out at 11 nM.

For the molecule `COc1cccc(OC)c1-n1c(NS(=O)(=O)[C@@H](C)[C@H](O)c2nc(C)c(C)s2)nnc1-c1cncc(C)c1` (single isomer, unassigned) [Example 295.0], the EC50 worked out at 98 nM.

As to `COc1cccc(OC)c1-n1c(NS(=O)(=O)[C@@H](C)[C@H](O)c2nc(C)c(C)s2)nnc1-c1cncc(C)c1` (single isomer, unassigned) [Example 296.0], the EC50 is 4.7 nM.

Turning to `COc1cnc([C@@H](O)[C@H](C)S(=O)(=O)Nc2nnc(-c3cncc(C)c3)n2-c2c(OC)cccc2OC)cn1` (single isomer, unassigned) [Example 305.0], the half-maximal effective concentration (EC50) was 0.39 nM.

Regarding `COc1cnc([C@@H](O)[C@H](C)S(=O)(=O)Nc2nnc(-c3cncc(C)c3)n2-c2c(OC)cccc2OC)cn1` (single isomer, unassigned) [Example 306.0], the EC50 amounted to 20 nM.

As to `COc1cnc([C@@H](O)[C@H](C)S(=O)(=O)Nc2nnc(-c3cncc(C)c3)n2-c2c(OC)cccc2OC)cn1` (single isomer, unassigned) [Example 308.0], the EC50 was 76 nM.

Take `COc1cnc([C@@H](O)[C@H](C)S(=O)(=O)Nc2nnc(-c3cncc(C)c3)n2-c2c(OC)cccc2OC)cn1` (single isomer, unassigned) [Example 309.0]: the EC50 is 9.5 nM.

Consider `COc1cnc([C@@H](OC)[C@H](C)S(=O)(=O)Nc2nnc(-c3cncc(C)c3)n2-c2c(OC)cccc2OC)cn1` (single isomer, unassigned) [Example 311.0], for which the EC50 is 0.26 nM.

In the case of `COc1cnc([C@@H](OC)[C@H](C)S(=O)(=O)Nc2nnc(-c3cncc(C)c3)n2-c2c(OC)cccc2OC)cn1` (single isomer, unassigned) [Example 312.0], the EC50 came out at 27 nM.

Consider `COc1cccc(-c2nnc(NS(=O)(=O)C[C@H](O)c3ccc(F)cn3)n2-c2c(OC)cccc2OC)n1` (single isomer, unassigned) [Example 316.0, (2R)—N-(4-(2,6-dimethoxyphenyl)-5-(6-methoxy-2-pyridinyl)-4H-1,2,4-triazol-3-yl)-2-(5-fluoro-2-pyridinyl)-2-hydroxyethanesulfonamide or (2S)—N-(4-(2,6-dimethoxyphenyl)-5-(6-methoxy-2-pyridinyl)-4H-1,2,4-triazol-3-yl)-2-(5-fluoro-2-pyridinyl)-2-hydroxyethanesulfonamide], for which the EC50 came to 0.5 nM.

Consider `COc1cccc(-c2nnc(NS(=O)(=O)C[C@H](O)c3ccc(F)cn3)n2-c2c(OC)cccc2OC)n1` (single isomer, unassigned) [Example 317.0, (2R)—N-(4-(2,6-dimethoxyphenyl)-5-(6-methoxy-2-pyridinyl)-4H-1,2,4-triazol-3-yl)-2-(5-fluoro-2-pyridinyl)-2-hydroxyethanesulfonamide or (2S)—N-(4-(2,6-dimethoxyphenyl)-5-(6-methoxy-2-pyridinyl)-4H-1,2,4-triazol-3-yl)-2-(5-fluoro-2-pyridinyl)-2-hydroxyethanesulfonamide], for which the EC50 amounted to 0.53 nM.

As to `COc1cccc(-c2nnc(NS(=O)(=O)C[C@H](OC)c3ccc(F)cn3)n2-c2c(OC)cccc2OC)n1` (single isomer, unassigned) [Example 329.0, (2R)—N-(4-(2,6-dimethoxyphenyl)-5-(6-methoxy-2-pyridinyl)-4H-1,2,4-triazol-3-yl)-2-(5-fluoro-2-pyridinyl)-2-methoxyethanesulfonamide or (2S)—N-(4-(2,6-dimethoxyphenyl)-5-(6-methoxy-2-pyridinyl)-4H-1,2,4-triazol-3-yl)-2-(5-fluoro-2-pyridinyl)-2-methoxyethanesulfonamide], the EC50 was 0.23 nM.

Consider `COc1cccc(-c2nnc(NS(=O)(=O)C[C@H](OC)c3ccc(F)cn3)n2-c2c(OC)cccc2OC)n1` (single isomer, unassigned) [Example 330.0, (2R)—N-(4-(2,6-dimethoxyphenyl)-5-(6-methoxy-2-pyridinyl)-4H-1,2,4-triazol-3-yl)-2-(5-fluoro-2-pyridinyl)-2-methoxyethanesulfonamide or (2S)—N-(4-(2,6-dimethoxyphenyl)-5-(6-methoxy-2-pyridinyl)-4H-1,2,4-triazol-3-yl)-2-(5-fluoro-2-pyridinyl)-2-methoxyethanesulfonamide], for which the EC50 is 0.3 nM.

In the case of `COc1cccc(-c2nnc(NS(=O)(=O)C[C@H](O)c3ccc(C#N)cn3)n2-c2c(OC)cccc2OC)n1` (single isomer, unassigned) [Example 332.0, (R)-2-(5-cyanopyridin-2-yl)-N-(4-(2,6-dimethoxyphenyl)-5-(6-methoxypyridin-2-yl)-4H-1,2,4-triazol-3-yl)-2-hydroxyethanesulfonamide or (S)-2-(5-cyanopyridin-2-yl)-N-(4-(2,6-dimethoxyphenyl)-5-(6-methoxypyridin-2-yl)-4H-1,2,4-triazol-3-yl)-2-hydroxyethanesulfonamide], the EC50 worked out at 0.56 nM.

Turning to `COc1cccc(OC)c1-n1c(NS(=O)(=O)[C@@H](C)[C@@H](O)c2ccc(C#N)cc2F)nnc1-c1cncc(C)c1` (single isomer, unassigned) [Example 343.0], the EC50 stood at 64 nM.

Take `COc1cccc(OC)c1-n1c(NS(=O)(=O)[C@@H](C)[C@@H](O)c2ccc(C#N)cc2F)nnc1-c1cncc(C)c1` (single isomer, unassigned) [Example 344.0]: the EC50 amounted to 0.6 nM.

`COc1cccc(OC)c1-n1c(NS(=O)(=O)[C@@H](C)[C@H](OC)c2ccc(F)cn2)nnc1-c1cncc(C)c1` (single isomer, unassigned) [Example 351.0]: the EC50 was determined as 0.87 nM.

For `COc1cccc(OC)c1-n1c(NS(=O)(=O)[C@@H](C)[C@H](OC)c2ccc(F)cn2)nnc1-c1cncc(C)c1` (single isomer, unassigned) [Example 352.0], the EC50 was 0.32 nM.

With `COc1cccc(OC)c1-n1c(NS(=O)(=O)[C@@H](C)[C@H](OC)c2ccc(F)cn2)nnc1-c1cncc(C)c1` (single isomer, unassigned) [Example 353.0], the EC50 stood at 100 nM.

With `COc1cccc(OC)c1-n1c(NS(=O)(=O)[C@H](C)[C@H](O)c2ncc(F)cn2)nnc1-c1cncc(C)c1` (single isomer, unassigned) [Example 358.0, (1R,2R)—N-(4-(2,6-dimethoxyphenyl)-5-(5-methylpyridin-3-yl)-4H-1,2,4-triazol-3-yl)-1-(5-fluoropyrimidin-2-yl)-1-hydroxypropane-2-sulfonamide or (1S,2S)—N-(4-(2,6-dimethoxyphenyl)-5-(5-methylpyridin-3-yl)-4H-1,2,4-triazol-3-yl)-1-(5-fluoropyrimidin-2-yl)-1-hydroxypropane-2-sulfonamide], the EC50 is 69 nM.

With `COc1cccc(OC)c1-n1c(NS(=O)(=O)[C@H](C)[C@@H](OCCO)c2ncc(C)cn2)nnc1-c1cncc(C)c1` (single isomer, unassigned) [Example 394.0, (1S,2R)—N-(4-(2,6-dimethoxyphenyl)-5-(5-methylpyridin-3-yl)-4H-1,2,4-triazol-3-yl)-1-(2-hydroxyethoxy)-1-(5-methylpyrimidin-2-yl)propane-2-sulfonamide or (1R,2S)—N-(4-(2,6-dimethoxyphenyl)-5-(5-methylpyridin-3-yl)-4H-1,2,4-triazol-3-yl)-1-(2-hydroxyethoxy)-1-(5-methylpyrimidin-2-yl)propane-2-sulfonamide], the EC50 stood at 12 nM.

Take `COc1cccc(OC)c1-n1c(NS(=O)(=O)[C@H](C)[C@@H](OCCO)c2ncc(C)cn2)nnc1-c1cncc(C)c1` (single isomer, unassigned) [Example 395.0, (1S,2R)—N-(4-(2,6-dimethoxyphenyl)-5-(5-methylpyridin-3-yl)-4H-1,2,4-triazol-3-yl)-1-(2-hydroxyethoxy)-1-(5-methylpyrimidin-2-yl)propane-2-sulfonamide or (1R,2S)—N-(4-(2,6-dimethoxyphenyl)-5-(5-methylpyridin-3-yl)-4H-1,2,4-triazol-3-yl)-1-(2-hydroxyethoxy)-1-(5-methylpyrimidin-2-yl)propane-2-sulfonamide]: the EC50 came out at 0.11 nM.

For the molecule `COc1cccc(OC)c1-n1c(NS(=O)(=O)[C@H](C)[C@@H](OC[C@H](C)O)c2ncc(C)cn2)nnc1-c1cncc(C)c1` (single isomer, unassigned) [Example 400.0], the EC50 came to 17 nM.

For `COc1cccc(OC)c1-n1c(NS(=O)(=O)[C@H](C)[C@@H](OC[C@H](C)O)c2ncc(C)cn2)nnc1-c1cncc(C)c1` (single isomer, unassigned) [Example 401.0], the EC50 turned out to be 21 nM.

In the case of `COc1cccc(OC)c1-n1c(NS(=O)(=O)[C@H](C)[C@@H](OC[C@H](C)O)c2ncc(C)cn2)nnc1-c1cncc(C)c1` (single isomer, unassigned) [Example 402.0], the EC50 turned out to be 0.86 nM.

`COc1cccc(OC)c1-n1c(NS(=O)(=O)[C@H](C)[C@@H](OC[C@H](C)O)c2ncc(C)cn2)nnc1-c1cncc(C)c1` (single isomer, unassigned) [Example 403.0]: the EC50 turned out to be 0.21 nM.
